Like-named read-outs stand apart in the source and are kept apart here.
How the values were obtained:
hT2R63 = assay: hT2R panel inhibition, transient HEK293 G16g44, agonist Caffeine 1 mM or Andrographolide 100 μM; type: cell-based, human; conditions: compound at 25 μM; for screening result against bitter receptor 63: receptor activated to EC80 with the corresponding agonist; for inhibition of bitter receptor 63: receptor activated to EC80 with agonist
Experimental: (§1) Specifically, in order to evaluate the inhibitory selectivity of the Compound C compound, this compound was tested against 22 human T2Rs which were deorphaned by Senomyx. These receptors and the bitter ligands that activate these human T2Rs are reported in earlier patent applications which are incorporated by reference herein. These 22 human T2Rs are hT2R1, 3, 4, 5, 7, 8, 9, 10, 13, 14, 16, 44, 51, 54, 55, 61, 63, 64, 65, 67, 71 and 75. The amino acid and nucleic acid sequences of all of these T2Rs may be found in these earlier patent applications. These human T2Rs were each individually transiently transfected into HEK293 cells that stably express the promiscuous G protein G16g44 and functional assays were effected using these receptors as disclosed in these same patent applications. […] The ligands were used at EC80 concentration levels. The list of bitter ligands utilized and the tested ligand concentrations are contained in Table 5 of this example.
(§2) Relating to the foregoing, FIG. 5 contains experimental results wherein Compound C was tested with different agonist compounds. The inhibition activity is represented by the reduction of receptor activity in the presence of Compound C. […] These 13 hT2Rs are hT2R3, 7, 10, 14, 16, 44, 51, 55, 61, 63, 64, 65, and 71.

hT2R14 [1] = target: T1, hT2R14 (Homo sapiens (Human), UniProt Q9NYV8); assay: hT2R panel inhibition, transient HEK293 G16g44, agonist Aristolochic Acid 2 μM; type: cell-based; conditions: HEK293, compound at 25 μM
T1 sequence (Q9NYV8 whole entry): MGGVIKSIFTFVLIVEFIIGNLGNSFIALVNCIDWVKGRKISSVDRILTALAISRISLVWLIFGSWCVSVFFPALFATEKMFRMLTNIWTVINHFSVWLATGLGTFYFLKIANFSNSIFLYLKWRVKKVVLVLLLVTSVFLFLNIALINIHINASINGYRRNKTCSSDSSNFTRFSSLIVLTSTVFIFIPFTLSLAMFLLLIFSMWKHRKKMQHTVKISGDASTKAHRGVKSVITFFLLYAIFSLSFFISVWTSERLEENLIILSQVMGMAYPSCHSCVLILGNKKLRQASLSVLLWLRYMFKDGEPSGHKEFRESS
Experimental: as §1

hT2R61 = hT2R61 (Homo sapiens (Human), UniProt P59537); assay: hT2R panel inhibition, transient HEK293 G16g44, agonist Aristolochic Acid 25 nM; type: cell-based; conditions: HEK293, compound at 25 μM
hT2R61, sequence (P59537 whole entry): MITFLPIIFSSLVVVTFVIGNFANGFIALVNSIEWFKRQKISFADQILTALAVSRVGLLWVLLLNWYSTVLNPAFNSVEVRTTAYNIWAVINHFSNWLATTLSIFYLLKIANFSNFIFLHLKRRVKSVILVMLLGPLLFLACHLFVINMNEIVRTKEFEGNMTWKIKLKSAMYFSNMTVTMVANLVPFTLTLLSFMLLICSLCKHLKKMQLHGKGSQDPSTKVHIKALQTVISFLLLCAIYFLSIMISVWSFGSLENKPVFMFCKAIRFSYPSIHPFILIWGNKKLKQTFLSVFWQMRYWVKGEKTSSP
Experimental: as §1, §2

hT2R5 = hT2R5 (Homo sapiens (Human), UniProt Q9NYW4); assay: hT2R panel inhibition, transient HEK293 G16g44, agonist Picoline 10 mM; type: cell-based; conditions: HEK293, compound at 25 μM; receptor activated to EC80 with the corresponding agonist; read-out: screening result against bitter receptor 5
hT2R5, sequence (Q9NYW4 whole entry): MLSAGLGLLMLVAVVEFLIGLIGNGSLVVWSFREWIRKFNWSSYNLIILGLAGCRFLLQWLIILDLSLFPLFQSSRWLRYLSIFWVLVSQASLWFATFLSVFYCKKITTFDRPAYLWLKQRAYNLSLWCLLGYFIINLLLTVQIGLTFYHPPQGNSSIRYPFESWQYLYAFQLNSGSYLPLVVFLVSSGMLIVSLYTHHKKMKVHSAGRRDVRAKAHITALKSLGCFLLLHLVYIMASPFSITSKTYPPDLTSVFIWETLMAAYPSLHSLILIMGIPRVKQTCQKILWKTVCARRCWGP
Experimental: as §1, §2

hT2R3 = hT2R3 (Homo sapiens (Human), UniProt Q9NYW6); assay: hT2R panel inhibition, transient HEK293 G16g44, agonist Chloroquine pH6.5 50 μM; type: cell-based; conditions: HEK293, compound at 25 μM; receptor activated to EC80 with the corresponding agonist; read-out: screening result against bitter receptor 3
hT2R3, sequence (Q9NYW6 whole entry): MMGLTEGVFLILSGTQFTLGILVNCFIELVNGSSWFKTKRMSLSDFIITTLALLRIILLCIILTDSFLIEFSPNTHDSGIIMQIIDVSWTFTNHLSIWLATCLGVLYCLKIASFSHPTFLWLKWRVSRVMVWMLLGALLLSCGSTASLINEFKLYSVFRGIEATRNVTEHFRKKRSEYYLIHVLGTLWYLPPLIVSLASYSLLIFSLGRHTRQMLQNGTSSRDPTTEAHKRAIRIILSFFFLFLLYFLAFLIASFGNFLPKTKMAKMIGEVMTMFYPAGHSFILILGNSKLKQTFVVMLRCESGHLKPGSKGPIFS
Experimental: as §1, §2

hT2R55 = assay: hT2R panel inhibition, transient HEK293 G16g44, agonist Cinchonine 150 μM; type: cell-based, human; conditions: compound at 25 μM; receptor activated to EC80 with the corresponding agonist
Experimental: as §1, §2

hT2R64 = hT2R64 (Homo sapiens (Human), UniProt P59538); assay: hT2R panel inhibition, transient HEK293 G16g44, agonist Aristolochic Acid 1 μM; type: cell-based; conditions: HEK293, compound at 25 μM; receptor activated to EC80 with the corresponding agonist; read-out: screening result against bitter receptor 64
hT2R64, sequence (P59538 whole entry): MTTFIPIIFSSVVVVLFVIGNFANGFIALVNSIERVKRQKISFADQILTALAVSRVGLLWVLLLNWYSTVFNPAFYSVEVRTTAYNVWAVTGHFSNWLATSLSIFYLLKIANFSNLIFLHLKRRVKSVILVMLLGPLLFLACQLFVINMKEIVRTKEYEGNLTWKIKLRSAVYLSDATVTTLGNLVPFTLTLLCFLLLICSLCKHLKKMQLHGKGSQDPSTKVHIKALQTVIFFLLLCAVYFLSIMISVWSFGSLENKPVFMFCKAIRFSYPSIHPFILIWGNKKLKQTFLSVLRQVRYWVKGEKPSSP
Experimental: as §1, §2

hT2R7 = hT2R7 (Homo sapiens (Human), UniProt Q9NYW3); assay: hT2R panel inhibition, transient HEK293 G16g44, agonist Chloroquine pH6.5 10 mM; type: cell-based; conditions: HEK293, compound at 25 μM
hT2R7, sequence (Q9NYW3 whole entry): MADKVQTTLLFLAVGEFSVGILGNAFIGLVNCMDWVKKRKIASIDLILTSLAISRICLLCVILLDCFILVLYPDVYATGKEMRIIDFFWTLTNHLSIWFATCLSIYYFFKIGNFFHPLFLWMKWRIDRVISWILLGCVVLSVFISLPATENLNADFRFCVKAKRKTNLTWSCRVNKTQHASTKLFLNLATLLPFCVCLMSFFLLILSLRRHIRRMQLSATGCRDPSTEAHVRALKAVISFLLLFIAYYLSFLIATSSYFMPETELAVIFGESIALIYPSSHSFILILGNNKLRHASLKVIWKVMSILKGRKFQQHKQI
Experimental: as §1, §2

hT2R10 = hT2R10 (Homo sapiens (Human), UniProt Q9NYW0); assay: hT2R panel inhibition, transient HEK293 G16g44, agonist Strychnine 50 μM; type: cell-based; conditions: HEK293, read-out: screening result against bitter receptor 10, compound at 25 μM; receptor activated to EC80 with the corresponding agonist
hT2R10, sequence (Q9NYW0 whole entry): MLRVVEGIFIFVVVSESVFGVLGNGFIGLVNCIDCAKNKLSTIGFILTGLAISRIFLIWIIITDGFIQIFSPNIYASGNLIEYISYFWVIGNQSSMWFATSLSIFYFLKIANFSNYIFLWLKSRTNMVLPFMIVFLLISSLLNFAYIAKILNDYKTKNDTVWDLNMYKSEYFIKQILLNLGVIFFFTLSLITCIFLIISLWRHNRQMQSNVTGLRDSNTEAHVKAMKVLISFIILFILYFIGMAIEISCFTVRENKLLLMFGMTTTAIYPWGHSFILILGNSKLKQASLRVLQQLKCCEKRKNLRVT
Experimental: as §1, §2

hT2R44 = assay: hT2R panel inhibition, transient HEK293 G16g44, agonist Denatonium 0.5 μM; type: cell-based, human; conditions: compound at 25 μM; for screening result against bitter receptor 44: receptor activated to EC80 with the corresponding agonist; for inhibition of bitter receptor 44: receptor activated to EC80 with agonist
Experimental: as §1, §2

hT2R71 = hT2R71 (Homo sapiens (Human), UniProt P59536); assay: hT2R panel inhibition, transient HEK293 G16g44, agonist Picric Acid 10 μM; type: cell-based; conditions: HEK293, compound at 25 μM
hT2R71, sequence (P59536 whole entry): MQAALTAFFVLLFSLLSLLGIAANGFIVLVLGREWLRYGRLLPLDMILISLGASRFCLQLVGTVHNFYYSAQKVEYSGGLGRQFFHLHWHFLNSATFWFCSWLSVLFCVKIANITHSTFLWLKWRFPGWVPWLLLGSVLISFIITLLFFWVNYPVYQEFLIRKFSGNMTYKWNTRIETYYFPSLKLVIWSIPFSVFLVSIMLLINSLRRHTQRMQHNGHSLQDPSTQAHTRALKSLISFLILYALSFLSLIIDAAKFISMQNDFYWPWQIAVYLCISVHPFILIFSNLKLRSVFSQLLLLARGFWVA
Experimental: as §1, §2

hT2R16 = hT2R16 (Homo sapiens (Human), UniProt Q9NYV7); assay: hT2R panel inhibition, transient HEK293 G16g44, agonist Salicin 1 mM; type: cell-based; conditions: HEK293, compound at 25 μM; receptor activated to EC80 with the corresponding agonist; read-out: screening result against bitter receptor 16
hT2R16, sequence (Q9NYV7 whole entry): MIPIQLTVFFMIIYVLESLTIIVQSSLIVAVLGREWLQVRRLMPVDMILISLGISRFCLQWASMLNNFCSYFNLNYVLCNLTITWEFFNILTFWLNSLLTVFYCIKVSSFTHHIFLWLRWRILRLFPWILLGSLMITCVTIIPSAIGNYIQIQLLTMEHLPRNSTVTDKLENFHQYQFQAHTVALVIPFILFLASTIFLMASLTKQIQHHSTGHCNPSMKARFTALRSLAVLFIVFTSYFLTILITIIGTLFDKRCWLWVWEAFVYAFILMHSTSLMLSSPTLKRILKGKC
Experimental: as §1, §2

hT2R67 = assay: hT2R panel inhibition, transient HEK293 G16g44, agonist Andrographolide 5 μM; type: cell-based, human; conditions: compound at 25 μM; receptor activated to EC80 with the corresponding agonist
Experimental: as §1, §2

hT2R65 = assay: hT2R panel inhibition, transient HEK293 G16g44, agonist Oleuropein 1 mM; type: cell-based, human; conditions: compound at 25 μM; for screening result against bitter receptor 65: receptor activated to EC80 with the corresponding agonist
Experimental: as §1, §2

hT2R14 [2] = target: T1, hT2R14; assay: hT2R14 antagonist high-throughput FLIPR assay, stable cell line with G16g44, agonist aristolochic acid; type: cell-based
Summary of the method: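 HEK293 cells stably expressing hT2R14 with chimeric G16g44 were stimulated with aristolochic acid (3 μM), giving 70-80% of maximal receptor activity. Test compounds were added together with the agonist, and antagonism was read as fluorescent calcium signal on FLIPR.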

[3] = receptor activated to EC80 with the corresponding agonist, read-out: screening result against bitter receptor 14
[4] = receptor activated to EC80 with the corresponding agonist, read-out: screening result against bitter receptor 61
[5] = receptor activated to EC80 with the corresponding agonist, read-out: screening result against bitter receptor 7
[6] = receptor activated to EC80 with the corresponding agonist, read-out: screening result against bitter receptor 71
[7] = receptor activated to EC80 with agonist, read-out: inhibition of bitter receptor 14
[8] = receptor activated to EC80 with agonist, read-out: inhibition of bitter receptor 7
[9] = receptor activated to EC80 with agonist, read-out: inhibition of bitter receptor 61

Row | SMILES | screening result against bitter receptor 63 (hT2R63) | inhibition at 25 µM (hT2R14 [1]; [3]) | inhibition at 25 µM (hT2R61; [4]) | inhibition at 25 µM (hT2R5) | inhibition at 25 µM (hT2R3) | screening result against bitter receptor 55 (hT2R55) | inhibition at 25 µM (hT2R64) | inhibition at 25 µM (hT2R7; [5]) | screening result against bitter receptor 44 (hT2R44) | inhibition at 25 µM (hT2R71; [6]) | inhibition at 25 µM (hT2R16) | screening result against bitter receptor 67 (hT2R67) | also measured
1 | CN(Cc1ccccc1)S(=O)(=O)c1ccc(C(=O)O)cc1 [Example 5-55, 4-(N-benzyl-N-methylsulfamoyl)benzoic acid] | ++++ (80% or greater inhibition = ++++) | > 80% | 20 to 40% | 20 to 40% | 20 to 40% | ++ (40% to 60% inhibition = ++) | 40 to 60% | – | – | – | – | – | –
2 | N#Cc1ccccc1CN(Cc1ccccc1)S(=O)(=O)c1ccc(C(=O)O)cc1 [Example 5-92, 4-(N-benzyl-N-(2-cyanobenzyl)sulfamoyl)benzoic acid] | ++++ (80% or greater inhibition = ++++) | > 80% | > 80% | 20 to 40% | 20 to 40% | ++++ (80% or greater inhibition = ++++) | > 80% | 20 to 40% | ++++ (80% or greater inhibition = ++++) | 40 to 60% | 20 to 40% | – | inhibition at 25 µM (hT2R10): 20 to 40%
3 | COc1ccc(CN(Cc2cccnc2)S(=O)(=O)c2ccc(C(=O)O)cc2)cc1 [Example 5-88, 4-(N-(4-methoxybenzyl)-N-(pyridin-3-ylmethyl)sulfamoyl)benzoic acid] | +++ (60% to 80% inhibition = +++) | 20 to 40% | 40 to 60% | – | 20 to 40% | – | 20 to 40% | – | + (20% to 40% inhibition = +) | 20 to 40% | – | + (20% to 40% inhibition = +) | –
4 | O=C(O)c1ccc(S(=O)(=O)N(Cc2ccccc2)Cc2ccc(O)cc2)cc1 [Example 5-99, 4-(N-benzyl-N-(4-hydroxybenzyl)sulfamoyl)benzoic acid] | ++++ (80% or greater inhibition = ++++) | > 80% | > 80% | – | – | + (20% to 40% inhibition = +) | 60 to 80% | 20 to 40% | +++ (60% to 80% inhibition = +++) | 60 to 80% | 20 to 40% | ++ (40% to 60% inhibition = ++) | screening result against bitter receptor 65 (hT2R65): ++ (40% to 60% inhibition = ++); IC50 (hT2R14 [2]; Table C, read-out: hT2R14 IC50): 5.21 µM
5 | Cc1c(F)cccc1NS(=O)(=O)c1ccc2c(c1)c(=O)n(C)c(=O)n2C [Example 6-7, N-(3-fluoro-2-methylphenyl)-1,3-dimethyl-2,4-dioxo-1,2,3,4-tetrahydroquinazoline-6-sulfonamide] | – | – | – | – | – | – | – | – | – | – | – | – | inhibition of bitter receptor 63 (hT2R63): + (20% to 40% inhibition = +); inhibition at 25 µM (hT2R14 [1]; [7]): 40 to 60%; inhibition at 25 µM (hT2R7; [8]): 20 to 40%
6 | COc1ccc(CN(Cc2ccc(C)o2)S(=O)(=O)c2ccc(C(=O)O)cc2)cc1 [Example 5-63, 4-(N-(4-methoxybenzyl)-N-((5-methylfuran-2-yl)methyl)sulfamoyl)benzoic acid] | +++ (60% to 80% inhibition = +++) | – | – | 20 to 40% | 20 to 40% | +++ (60% to 80% inhibition = +++) | 40 to 60% | – | – | 20 to 40% | – | + (20% to 40% inhibition = +) | –
7 | Cn1c(=O)c2cc(S(=O)(=O)Nc3ccc4c(c3)OCO4)ccc2n(C)c1=O [Example 6-5, N-(benzo[d][1,3]dioxol-5-yl)-1,3-dimethyl-2,4-dioxo-1,2,3,4-tetrahydroquinazoline-6-sulfonamide] | – | – | – | – | – | – | – | – | – | – | – | – | inhibition of bitter receptor 63 (hT2R63): ++++ (80% or greater inhibition = ++++); inhibition at 25 µM (hT2R14 [1]; [7]): > 80%; inhibition at 25 µM (hT2R61; [9]): 20 to 40%; inhibition of bitter receptor 44 (hT2R44): ++ (40% to 60% inhibition = ++); inhibition at 25 µM (hT2R71; receptor activated to EC80 with agonist, read-out: inhibition of bitter receptor 71): 60 to 80%; inhibition of bitter receptor 65 (hT2R65; receptor activated to EC80 with agonist): ++ (40% to 60% inhibition = ++); IC50 (hT2R14 [2]; Table D, read-out: hT2R14 IC50): 0.264 µM
8 | COc1ccc(CN(Cc2ccccn2)S(=O)(=O)c2ccc(C(=O)O)cc2)cc1 [Example 5-87, 4-(N-(4-methoxybenzyl)-N-(pyridin-2-ylmethyl)sulfamoyl)benzoic acid] | + (20% to 40% inhibition = +) | – | 40 to 60% | – | – | – | 20 to 40% | – | – | – | – | + (20% to 40% inhibition = +) | –
9 | COc1ccc(CN(Cc2ccccc2)S(=O)(=O)c2ccc(-c3nn[nH]n3)cc2)cc1 [Example 5-46, N-benzyl-N-(4-methoxybenzyl)-4-(1H-tetrazol-5-yl)benzene-sulfonamide] | +++ (60% to 80% inhibition = +++) | > 80% | > 80% | – | 20 to 40% | + (20% to 40% inhibition = +) | – | 20 to 40% | ++ (40% to 60% inhibition = ++) | 60 to 80% | 20 to 40% | ++ (40% to 60% inhibition = ++) | screening result against bitter receptor 65 (hT2R65): ++ (40% to 60% inhibition = ++); IC50 (hT2R14 [2]; read-out: IC50 on hT2R14 bitter receptor): 3.67 µM
10 | O=C(O)c1ccc(S(=O)(=O)NCc2ccco2)cc1 [Example 5-54, 4-(N-(furan-2-ylmethyl)sulfamoyl)benzoic acid] | – | – | – | – | 20 to 40% | – | – | – | – | – | – | + (20% to 40% inhibition = +) | –
11 | COc1ccc(CN(Cc2ccccc2)S(=O)(=O)c2ccc(C(=O)O)cc2)cn1 [Example 5-90, 4-(N-benzyl-N-((6-methoxypyridin-3-yl)methyl)sulfamoyl)benzoic acid] | ++++ (80% or greater inhibition = ++++) | > 80% | > 80% | 20 to 40% | 40 to 60% | +++ (60% to 80% inhibition = +++) | 60 to 80% | 60 to 80% | +++ (60% to 80% inhibition = +++) | 60 to 80% | 20 to 40% | – | inhibition at 25 µM (hT2R10): 40 to 60%; screening result against bitter receptor 65 (hT2R65): ++ (40% to 60% inhibition = ++)
12 | Cc1ccccc1NS(=O)(=O)c1ccc2c(c1)c(=O)n(C)c(=O)n2C [Example 6-9, 1,3-dimethyl-2,4-dioxo-N-o-tolyl-1,2,3,4-tetrahydroquinazoline-6-sulfonamide] | – | – | – | – | – | – | – | – | – | – | – | – | inhibition of bitter receptor 63 (hT2R63): + (20% to 40% inhibition = +); inhibition at 25 µM (hT2R14 [1]; [7]): > 80%; inhibition at 25 µM (hT2R7; [8]): 40 to 60%; inhibition at 25 µM (hT2R61; [9]): 20 to 40%; inhibition of bitter receptor 44 (hT2R44): + (20% to 40% inhibition = +); IC50 (hT2R14 [2]; Table D, read-out: hT2R14 IC50): 1.73 µM

Source: US9247759B2, “Identification of human T2R receptors that respond to bitter compounds that elicit the bitter taste in compositions, and the use thereof in assays to identify compounds that inhibit (block) bitter taste in compositions and use thereof” (SENOMYX, INC., priority 2007, dated 2016)
